Experimental data reported in ChEMBL document CHEMBL1201862, “PubChem BioAssay data set” (2004).
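Results reflect a 48-hour exposure of cells in 96-well plates to compound at five concentrations. Here, GI50 denotes the concentration required for 50% inhibition of growth.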 Calls of active or inactive are those of the source. No stated cut-off is given here; in the data, active = GI50 up to about 1.1 µM and inactive = higher.

Legend:
Assay in all cases: NCI anticancer screen, dose series, 48 h
A498 = system: A498
CAKI-1 = system: CAKI-1
HOP-62 = system: HOP-62
IGROV-1 = system: IGROV-1
K562 = system: K562
MCF7 = system: MCF7
MDA-MB-231 = system: MDA-MB-231
MDA-MB-435 = system: MDA-MB-435
MDA-N = system: MDA-N
NCI-H23 = system: NCI-H23
OVCAR-3 = system: OVCAR-3
OVCAR-5 = system: OVCAR-5
RPMI-8226 = system: RPMI-8226
SF-268 = system: SF-268
SF-539 = system: SF-539
SNB-75 = system: SNB-75
UACC-62 = system: UACC-62
UO-31 = system: UO-31
CCRF-CEM = system: CCRF-CEM

| Structure (SMILES) | GI50 (A498) | GI50 (CAKI-1) | GI50 (HOP-62) | GI50 (IGROV-1) | GI50 (K562) | GI50 (MCF7) | GI50 (MDA-MB-231) | GI50 (MDA-MB-435) | GI50 (MDA-N) | GI50 (NCI-H23) | GI50 (OVCAR-3) | GI50 (OVCAR-5) | GI50 (RPMI-8226) | GI50 (SF-268) | GI50 (SF-539) | GI50 (SNB-75) | GI50 (UACC-62) | GI50 (UO-31) | GI50 (CCRF-CEM) |
| --- | --- | --- | --- | --- | --- | --- | --- | --- | --- | --- | --- | --- | --- | --- | --- | --- | --- | --- | --- |
| Cc1ccc(/C=C2\CCC/C(=C\c3ccc(O)c(CN4CCCCC4)c3)C2=O)cc1 | 3.1 µM (inactive) | 14.6 µM (inactive) | 15.3 µM (inactive) | 8.02 µM (inactive) | 3.56 µM (inactive) | 4.44 µM (inactive) | 5.41 µM (inactive) | 3.41 µM (inactive) | 4.22 µM (inactive) | 5.64 µM (inactive) | 10.9 µM (inactive) | 17.4 µM (inactive) | 5.08 µM (inactive) | 3.14 µM (inactive) | 9.42 µM (inactive) | 6.49 µM (inactive) | 3.92 µM (inactive) | 11.2 µM (inactive) | – |
| O=S(=O)(NC1CCCCC1)c1ccc2c(c1)OCCOCCOCCOCCO2 | > 100 µM (inactive) | > 100 µM (inactive) | > 100 µM (inactive) | > 100 µM (inactive) | > 100 µM (inactive) | > 100 µM (inactive) | > 100 µM (inactive) | > 100 µM (inactive) | > 100 µM (inactive) | > 100 µM (inactive) | – | – | > 100 µM (inactive) | > 100 µM (inactive) | > 100 µM (inactive) | > 100 µM (inactive) | > 100 µM (inactive) | > 100 µM (inactive) | > 100 µM (inactive) |
| CCP(=O)(OC)C1=CCN(C(=O)OCC[Si](C)(C)C)CC1 (stereo not given) | > 100 µM (inactive) | > 100 µM (inactive) | > 100 µM (inactive) | > 100 µM (inactive) | > 100 µM (inactive) | > 100 µM (inactive) | > 100 µM (inactive) | > 100 µM (inactive) | > 100 µM (inactive) | > 100 µM (inactive) | > 100 µM (inactive) | > 100 µM (inactive) | > 100 µM (inactive) | > 100 µM (inactive) | 72.9 µM (inactive) | > 100 µM (inactive) | > 100 µM (inactive) | > 100 µM (inactive) | > 100 µM (inactive) |
| CCCCC(C(=O)N/N=C/c1ccc([N+](=O)[O-])o1)C(=O)N/N=C/c1ccc([N+](=O)[O-])o1 | 19.8 µM (inactive) | 4.06 µM (inactive) | 13.1 µM (inactive) | 2.17 µM (inactive) | 3.28 µM (inactive) | 4.51 µM (inactive) | 3.81 µM (inactive) | 5.7 µM (inactive) | 3.53 µM (inactive) | 2.02 µM (inactive) | 2.32 µM (inactive) | 2.81 µM (inactive) | 0.682 µM (active) | 5.65 µM (inactive) | 10.1 µM (inactive) | 17.9 µM (inactive) | 2.91 µM (inactive) | 1.99 µM (inactive) | 0.977 µM (active) |
| COc1ccc(C2=Nn3c(nc4sc(C)c(C)c4c3=O)SC2)cc1 | > 100 µM (inactive) | > 100 µM (inactive) | > 100 µM (inactive) | > 100 µM (inactive) | > 100 µM (inactive) | > 100 µM (inactive) | > 100 µM (inactive) | > 100 µM (inactive) | > 100 µM (inactive) | > 100 µM (inactive) | > 100 µM (inactive) | > 100 µM (inactive) | > 100 µM (inactive) | > 100 µM (inactive) | > 100 µM (inactive) | > 100 µM (inactive) | > 100 µM (inactive) | > 100 µM (inactive) | > 100 µM (inactive) |
| COc1cc([C@@H]2c3cc4c(cc3[C@@H](/N=C/c3ccc(C(=O)O[C@H]5C[C@H]6OC[C@@]6(OC(C)=O)[C@H]6[C@H](OC(=O)c7ccccc7)[C@]7(O)C[C@H](OC(=O)[C@H](OC(=O)c8ccc(/C=N/[C@@H]9c%10cc%11c(cc%10[C@@H](c%10cc(OC)c(O)c(OC)c%10)[C@H]%10C(=O)OC[C@@H]%109)OCO%11)cc8)[C@@H](NC(=O)c8ccccc8)c8ccccc8)C(C)=C([C@@H](OC(C)=O)C(=O)[C@]56C)C7(C)C)cc3)C3COC(=O)C32)OCO4)cc(C)c1O (stereo not given in full) | 5.16 µM (inactive) | 12.8 µM (inactive) | 12.7 µM (inactive) | 14.7 µM (inactive) | 2.19 µM (inactive) | 7.6 µM (inactive) | > 25.2 µM (inactive) | 2.33 µM (inactive) | 1.82 µM (inactive) | 17.2 µM (inactive) | 6.85 µM (inactive) | > 15.5 µM (inactive) | > 50 µM (inactive) | > 31.5 µM (inactive) | 7.23 µM (inactive) | 4.25 µM (inactive) | 6.32 µM (inactive) | – | 30 µM (inactive) |
| COc1cc(S(=O)(=O)Nc2ccc(-c3csc(/N=C\c4ccccc4)n3)cc2)ccc1Cl | 37.5 µM (inactive) | > 100 µM (inactive) | 41.4 µM (inactive) | > 100 µM (inactive) | 32.2 µM (inactive) | 20.5 µM (inactive) | 37.2 µM (inactive) | 34.1 µM (inactive) | 39 µM (inactive) | 60.7 µM (inactive) | 56.9 µM (inactive) | > 100 µM (inactive) | 32 µM (inactive) | 32 µM (inactive) | 35.1 µM (inactive) | 62.7 µM (inactive) | 29.9 µM (inactive) | 74.3 µM (inactive) | 17 µM (inactive) |
| Cc1ccc(C)n1-c1ccccc1C1SCCCS1 | > 100 µM (inactive) | > 100 µM (inactive) | 50.8 µM (inactive) | > 100 µM (inactive) | > 100 µM (inactive) | 37.3 µM (inactive) | 49.9 µM (inactive) | > 100 µM (inactive) | > 100 µM (inactive) | > 100 µM (inactive) | > 100 µM (inactive) | > 100 µM (inactive) | > 100 µM (inactive) | > 100 µM (inactive) | > 100 µM (inactive) | 84.5 µM (inactive) | > 100 µM (inactive) | > 100 µM (inactive) | 59.8 µM (inactive) |
| c1ccc(/C(=N\Nc2nc3ccccc3[nH]2)c2ccccn2)cc1 | 0.916 µM (active) | 0.425 µM (active) | 0.324 µM (active) | 0.262 µM (active) | 0.222 µM (active) | 0.148 µM (active) | 0.415 µM (active) | 0.755 µM (active) | 0.762 µM (active) | 0.381 µM (active) | 0.169 µM (active) | 0.733 µM (active) | 0.242 µM (active) | 0.443 µM (active) | 0.388 µM (active) | 0.531 µM (active) | 0.82 µM (active) | 0.291 µM (active) | 0.0959 µM (active) |
| CCOC(=O)C1C(c2ccc(OC)cc2)c2c(n[nH]c2O)CC1(C)O (stereo not given) | > 100 µM (inactive) | > 100 µM (inactive) | > 100 µM (inactive) | > 100 µM (inactive) | – | > 100 µM (inactive) | > 100 µM (inactive) | > 100 µM (inactive) | > 100 µM (inactive) | > 100 µM (inactive) | > 100 µM (inactive) | > 100 µM (inactive) | > 100 µM (inactive) | > 100 µM (inactive) | > 100 µM (inactive) | > 100 µM (inactive) | > 100 µM (inactive) | > 100 µM (inactive) | > 100 µM (inactive) |
| CC(=O)OCC(C)(COC(C)=O)N1C(=O)C2C3c4ccccc4C(c4ccccc43)C2C1=O (stereo not given) | > 100 µM (inactive) | > 100 µM (inactive) | – | > 100 µM (inactive) | > 100 µM (inactive) | > 100 µM (inactive) | > 100 µM (inactive) | > 100 µM (inactive) | 28.1 µM (inactive) | > 100 µM (inactive) | > 100 µM (inactive) | > 100 µM (inactive) | > 100 µM (inactive) | > 100 µM (inactive) | > 100 µM (inactive) | 49.7 µM (inactive) | > 100 µM (inactive) | > 100 µM (inactive) | > 100 µM (inactive) |
| O=C(/C=C/c1ccc(Cl)cc1)c1cccs1 | 23.3 µM (inactive) | 24 µM (inactive) | 26.5 µM (inactive) | 29.9 µM (inactive) | 4.03 µM (inactive) | 3.62 µM (inactive) | 20 µM (inactive) | 13 µM (inactive) | 16.3 µM (inactive) | > 10 µM (inactive) | – | – | 3.1 µM (inactive) | 29.7 µM (inactive) | 34.3 µM (inactive) | 22.5 µM (inactive) | 21 µM (inactive) | 18 µM (inactive) | 6.61 µM (inactive) |
| CCN(CC)c1nc(=O)c(C(=O)C(C)(C)C)c(C(C)(C)C)o1 | > 100 µM (inactive) | > 100 µM (inactive) | > 100 µM (inactive) | > 100 µM (inactive) | > 100 µM (inactive) | > 100 µM (inactive) | > 100 µM (inactive) | > 100 µM (inactive) | > 100 µM (inactive) | > 100 µM (inactive) | – | > 100 µM (inactive) | > 100 µM (inactive) | > 100 µM (inactive) | > 100 µM (inactive) | > 100 µM (inactive) | > 100 µM (inactive) | – | > 100 µM (inactive) |
| C/C=C/CC(C(=O)OCC)(N(C)C(=O)OC(C)(C)C)S(=O)(=O)c1ccc(C)cc1 (stereo not given) | > 100 µM (inactive) | > 100 µM (inactive) | > 100 µM (inactive) | 68.7 µM (inactive) | 70.5 µM (inactive) | 53.7 µM (inactive) | > 100 µM (inactive) | 25.7 µM (inactive) | 22.1 µM (inactive) | > 100 µM (inactive) | > 100 µM (inactive) | > 100 µM (inactive) | 52.8 µM (inactive) | > 100 µM (inactive) | > 100 µM (inactive) | – | 61.9 µM (inactive) | > 100 µM (inactive) | > 100 µM (inactive) |
